Laboratory results taken from US20250011287A1, “FLUORINE-CONTAINING COMPOUND AND CONTRAST AGENT” (TDK CORPORATION, priority 2021, published 2025).

Columns and labels:
[1] = 19F spin-lattice relaxation time (T1) measurement by inversion recovery method, 500 MHz NMR; assay type: physicochemical; conditions: 5 mM/CDCl3, 36° C.
Description: (§1) For each of the compounds of Examples 1 to 10, Comparative Example 1, and Comparative Example 2 obtained as above, a ^19F spin-lattice relaxation time (T1) and a ^19F spin-spin relaxation time (T2) were measured by the following method.
The compound was dissolved in a deuterated chloroform solution at a concentration of 5 mM, and the longitudinal relaxation time (T1) of the ^19F nucleus was measured using a 500 MHz NMR device by an inversion recovery method under the conditions described below.
• NMR device: JNM-ECA500 (manufactured by JOEL) • Measurement temperature: 36° C. • Pulse sequence: double_pulse • relaxation_delay: 10 [s] • tau_interval: 4, 3, 2, 1, 0.8, 0.6, 0.4, 0.2, 0.1 [s], 80, 60, 40, 20, 10, 8, 6, 4, 2 [ms] • Accumulated number of times: 128 times

[2] = 19F spin-spin relaxation time (T2) measurement by CPMG method, 500 MHz NMR; assay type: physicochemical; conditions: 5 mM/CDCl3, 36° C.
Description: as §1
The compound was dissolved in a deuterated chloroform solution at a concentration of 5 mM, and the transverse relaxation time (T2) of the ^19F nucleus was measured using a 500 MHz NMR device by a Carr-Purcell-Meiboom-Gill (CPMG) method under the conditions described below.
• NMR device: JNM-ECA500 (manufactured by JOEL) • Measurement temperature: 36° C. • relaxation_delay: 10 [s] • tau_step: 1 [ms] • relaxation_delay: 1, 2, 3, 4, 5, 6, 8, 9, 10, 25, 50, 75 [ms], 0.10, 0.25, 0.50, 0.75, 1.00, 1.25, 1.50, 1.75, 2.00 [s] • Accumulated number of times: 128 times

| Molecule | T1 (19F spin-lattice relaxation time) [1] [s] | T2 (19F spin-spin relaxation time) [2] [s] |
| --- | --- | --- |
| CC1(C)CC(OCCCCCCCCCCCCOCC(COC(C(F)(F)F)(C(F)(F)F)C(F)(F)F)(COC(C(F)(F)F)(C(F)(F)F)C(F)(F)F)COC(C(F)(F)F)(C(F)(F)F)C(F)(F)F)CC(C)(C)N1O [Compound 20] | 0.612 | 0.390 |
| CC1(C)CC(OCCCCCCCCCOCC(COC(C(F)(F)F)(C(F)(F)F)C(F)(F)F)(COC(C(F)(F)F)(C(F)(F)F)C(F)(F)F)COC(C(F)(F)F)(C(F)(F)F)C(F)(F)F)CC(C)(C)N1O [Compound 19] | 0.520 | 0.332 |
| CCC1(CC)CC(OCCOCC(COC(C(F)(F)F)(C(F)(F)F)C(F)(F)F)(COC(C(F)(F)F)(C(F)(F)F)C(F)(F)F)COC(C(F)(F)F)(C(F)(F)F)C(F)(F)F)CC(CC)(CC)N1O [Compound 15] | 0.145 | 0.092 |
| 4-(3-((1,1,1,3,3,3-hexafluoro-2-(trifluoromethyl)propan-2-yl)oxy)-2-(((1,1,1,3,3,3-hexafluoro-2-(trifluoromethyl)propan-2-yl)oxy)methyl)-2-methylpropoxy)-2,2,6,6-tetramethylpiperidin-1-oxyl [Compound 13] | 0.071 | 0.050 |
| CCC1(CC)CC(OCCCOCC(COC(C(F)(F)F)(C(F)(F)F)C(F)(F)F)(COC(C(F)(F)F)(C(F)(F)F)C(F)(F)F)COC(C(F)(F)F)(C(F)(F)F)C(F)(F)F)CC(CC)(CC)N1O [Compound 17] | 0.172 | 0.108 |
| CC1(C)CC(OCCOCC(COC(C(F)(F)F)(C(F)(F)F)C(F)(F)F)(COC(C(F)(F)F)(C(F)(F)F)C(F)(F)F)COC(C(F)(F)F)(C(F)(F)F)C(F)(F)F)CC(C)(C)N1O [Compound 14] | 0.153 | 0.101 |
| CC1(C)CC(OCCCOCC(COC(C(F)(F)F)(C(F)(F)F)C(F)(F)F)(COC(C(F)(F)F)(C(F)(F)F)C(F)(F)F)COC(C(F)(F)F)(C(F)(F)F)C(F)(F)F)CC(C)(C)N1O [Compound 16] | 0.183 | 0.120 |
| CCC1(CC)CC(OCC(COC(C(F)(F)F)(C(F)(F)F)C(F)(F)F)(COC(C(F)(F)F)(C(F)(F)F)C(F)(F)F)COC(C(F)(F)F)(C(F)(F)F)C(F)(F)F)CC(CC)(CC)N1O [Compound 12, 4-(3-((1,1,1,3,3,3-hexafluoro-2-(trifluoromethyl)propan-2-yl)oxy)-2,2-bis(((1,1,1,3,3,3-hexafluoro-2-(trifluoromethyl)propan-2-yl)oxy)methyl)propoxy)-2,2,6,6-tetraethylpiperidin-1-oxyl] | 0.070 | 0.049 |
| 4-(3-((1,1,1,3,3,3-hexafluoro-2-(trifluoromethyl)propan-2-yl)oxy)-2,2-bis(((1,1,1,3,3,3-hexafluoro-2-(trifluoromethyl)propan-2-yl)oxy)methyl)propoxy)-2,2,6,6-tetramethylpiperidin-1-oxyl [Compound 11] | 0.077 | 0.057 |
| 1,3-Bis(2,2,2-trifluoro-1,1-bis(trifluoromethyl(ethoxy)-2,2-bis((2,2,2-trifluoro-1,1-bis(trifluoromethyl)ethoxy)methyl)propane [Compound A1, reference compound] | 1.380 | 1.270 |
| CC1(C)CC(OCCCCCCOCC(COC(C(F)(F)F)(C(F)(F)F)C(F)(F)F)(COC(C(F)(F)F)(C(F)(F)F)C(F)(F)F)COC(C(F)(F)F)(C(F)(F)F)C(F)(F)F)CC(C)(C)N1O [Compound 18] | 0.428 | 0.274 |
